Laboratory results from US6271247A, “Hydrazide compounds” (Adir et Compagnie, priority 1998, dated 2001).

Legend:
Y5 receptor = molecular target: T1, Y5 receptor (Homo sapiens, UniProt Q15761); test: In vitro affinity for NPY receptors, competition binding with [125I]-PYY on cell line expressing the Y5 sub-type; conditions: radioligand [125I]-PYY 15 to 65 pM
T1 construct: host or cells: unnamed cell line expressing the Y5 sub-type
T1 sequence (Q15761 1-445): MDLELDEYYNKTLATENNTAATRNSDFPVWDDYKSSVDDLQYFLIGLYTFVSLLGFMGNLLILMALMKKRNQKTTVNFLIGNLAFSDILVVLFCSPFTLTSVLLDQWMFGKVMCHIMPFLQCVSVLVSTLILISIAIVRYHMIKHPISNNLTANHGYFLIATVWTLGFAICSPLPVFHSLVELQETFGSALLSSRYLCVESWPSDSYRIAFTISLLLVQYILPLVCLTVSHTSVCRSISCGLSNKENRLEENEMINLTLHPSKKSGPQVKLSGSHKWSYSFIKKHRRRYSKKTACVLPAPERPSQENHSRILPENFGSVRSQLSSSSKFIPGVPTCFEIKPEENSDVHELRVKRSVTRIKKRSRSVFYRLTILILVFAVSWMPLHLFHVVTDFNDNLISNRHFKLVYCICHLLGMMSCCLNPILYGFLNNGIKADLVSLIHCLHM
Experimental: The capacity of the compounds of the invention to bind to NPY receptors was measured on various cell lines, each expressing one of the receptor sub-types studied. Competition binding experiments were carried out using the peptide [^125 I]-PYY as radioligand at concentrations ranging from 15 to 65 pM. The non-specific fraction is measured in the presence of a concentration of 1 μM NPY. The cells are incubated for a period ranging from 1 to 2 hours depending upon the lines, and the radioactivity is collected after filtration over a GF/C filter treated with 0.1% PEI, before being measured.
The results are expressed as IC50.

obese ob/ob mouse = test: Effect on food intake and weight development in the obese ob/ob mouse; type: in vivo, mouse (female ob/ob C57B1/6J); conditions: 5 mg/kg IP, twice daily
Experimental: The compounds of the invention were administered in vivo to the obese ob/ob mouse in order to evaluate their influence on food intake and weight development. The animals used are 13- to 18-week-old female ob/ob C57B1/6J mice. They are divided into groups each comprising 4 animals per cage, the cages being fitted with a grating floor, and the mice having free access to food.
Before the experiments, the animals are conditioned for a period ranging from 2 to 3 weeks until their food consumption has stabilised. The experiments may be summarised as follows:
D -14 to D -7: conditioning
D -7 to D -3: measurement of the basal food intake
D0 to D +3: animals treated twice daily, the control groups being given the carrier D0 to D +4: daily measurement of food intake and body weight
The test products are dissolved, immediately before use, in water, 0.9% sodium chloride, propylene glycol or dimethyl sulphoxide, depending upon their solubility, and are administered intraperitoneally (IP), in a volume of 2.5 ml/kg.
The parameters measured are the weight of the feed troughs containing the food and the body weight.
The results are expressed as: percentage variation in food intake under treatment compared with the basal food intake; percentage variation in body weight between the first and last day of treatment.

IC50 (Y5 receptor): 14.5 nM
SMILES: O=C(NNC(=O)C1CCC(CNS(=O)(=O)c2ccc3ccccc3c2)CC1)c1ccccc1 (stereo not drawn) [Example 44, N2-({4-[(2-Benzoylhydrazino)carbonyl]cyclohexyl}methyl)-2-naphthalenesulphonamide]
Food intake % variation (D1), Treated (compared with the basal food intake) (obese ob/ob mouse; D1, control -25.3): -75.2% | Body weight % variation (D4/D0) (obese ob/ob mouse; D4/D0): -6.0%
